PMC9046208, “Foldamers reveal and validate therapeutic targets associated with toxic α-synuclein self-assembly” (Nature Communications, 2022)

Legend:
[1] = target: T1, αS aggregation in the presence of LUVs (DOPS) (Homo sapiens, UniProt P37840); test: Lipid (LUVs, DOPS) catalyzed αS aggregation, ThT; type: biochemical; details: equimolar ratio
T1 construct: made in house; host or cells: Escherichia coli BL21(DE3), periplasm
Description: The aggregation kinetics of αS was monitored using ThT fluorescence assay (λex = 450 nm and λem = 485 nm). To study the aggregation kinetics of αS, the ThT dye at a final concentration of 50 μM was added to 100 μM αS solution in the aggregation buffer (1 x PBS buffer) with and without various concentrations of SK-129 in a Costar black 96–well plate (Corning Inc., Kennebunk, ME). The small molecules were dissolved in dimethyl sulfoxide (DMSO; final DMSO concentration = 0.5%, v/v). The final volume in each well was 140 μL. The plate was incubated at 37 °C with 16 min shaking (434 rpm) and 44 min without shaking in an Infinite M200PRO plate reader (Tecan, Männedorf, Switzerland) and fluorescence was recorded after every hour. We used two methods to quantify the effect of molecules on the aggregation of αS; either we have reported the t50 (time required to reach 50% fluorescence of ThT), which was extracted by fitting the ThT curve as a sigmoidal fit or the absolute ThT fluorescence intensity was reported. […] In the second method, we determined the final ThT fluorescence intensity for the aggregation of αS/Aβ42(with or without ligands) as an average of three separate experiments. […]
lipid-free and lipid-catalyzed aggregation of αS was monitored after 7 days. […]
equimolar ratio after four days. The data were expressed as mean and the error bars report the […]

[2] = system: HEK cells expressing αS-A53T-YFP; test: Intracellular seed catalyzed aggregation in HEK cells, MTT viability; type: cell-based; details: 10 µM SK-129 added 8 h after PD seeds, up to four days
Description: The HEK cells (200,000 cells/mL) were plated in an µ-slide eight-well plate (300 µL/well) and incubated at 37 °C and 5% CO2 (g), and allowed to adhere to the plate for 24 h in media (DMEM, 10% FBS, 1% pen/strep). […] The HEK cells were incubated with αS fibrils for 8 h followed by the addition of 10 µM SK-129 for 300 µL media in each well (0.3 µL of 10 mM stock solution in DMSO, total DMSO = 0.1% v,v). The eight-well plate was incubated for a total of 24 h. The eight-well plate after 24 h was used for both confocal imaging and for the cytotoxicity measurements using MTT assay (2 wells/condition, 300 µL/well). In each experiment, 2 wells were used for each condition, including control (only media and DMSO), fibrils, and fibrils+SK-129.
The HEK cells in the eight-well plate were treated with 30 µL of 1x PBS buffer containing MTT dye (5 mg/mL in 1x PBS buffer) to each well. The plates were wrapped in aluminum foil and incubated for 3 h. After 3 h, all liquid was aspirated carefully without disturbing the formazan crystals. To each well, 300 µL of DMSO was added to dissolve the crystals. Once dissolved, the DMSO solution was transferred to a clear 96-well plate (100 µL/well). The absorbance was read on a 96-well plate reader at 570 nm. The cytotoxicity assay was conducted up to four days from when the protein conditions were added to the cells. […]

SH-SY5Y cells = test: MTT cytotoxicity assay, SH-SY5Y cells; type: cell-based; details: 24 h, αS alone 48 ± 3%
Description: An MTT assay was conducted to assess the effect of SK-129 on the cytotoxicity mediated by αS aggregation in SH-SY5Y cells. The cells were cultured in phenol red-free Dulbeco’s Modified Eagle Medium (DMEM) with 10% Fetal Bovine Serum (FBS) and 1% penicillin-streptomycin (Pen/strep) at 37 °C and 5% CO2(g). The cells were plated in a clear, flat bottom 96-well cell culture plate (Costar, Kennebunk, ME) using a density of 10,000 cells per well with more than 90% cell viability. After incubating for 24 h, the media was aspirated, and 100 µL of fresh OptiMEM (Fisher Scientific, Pittsburgh, PA) was added, […] of various ligands at various stoichiometric ratios. The samples were then incubated for an additional 24 h at 37 °C and 5% CO2(g), followed by the addition of MTT dye (10 µL per well, prepared in 1x PBS buffer, 5 mg/mL). The plates were covered in aluminum foil and incubated again for 3 h. The solution in each well was carefully removed without disturbing the formazan crystals and replaced with 100 µL of DMSO to dissolve the formazan crystals. Subsequently, the plate was shaken in a 96-well plate reader for 5 min before measuring the absorbance at 570 nm. The cell viability was reported on a scale of 100%, using the control wells with regular media as 100% viability and the wells with 10% DMSO (v/v) as 0% viability.

effect on lipid catalyzed aggregation of αS [1]: wholly inhibited
Structure (SMILES): COC(=O)c1cc(OCC(=O)O)c2cccc(NC(=O)c3cc(OC(C)C)c4cccc(NC(=O)c5cc(OCC(=O)O)c6cccc(NC(=O)c7cc(OC(C)C)c8cccc([N+](=O)[O-])c8n7)c6n5)c4n3)c2n1 [SK-129]
cell viability of HEK cells [2]: significantly higher upto four days
viability of SH-SY5Y cells (SH-SY5Y cells; 10 μM αS aggregated with SK-129, 1:0.1 (αS:SK-129)): 91 ± 4%
viability of SH-SY5Y cells (SH-SY5Y cells; 10 μM αS aggregated with SK-129, 1:1 (αS:SK-129)): 97 ± 4%
